What was measured:
purified human BChE = purified human BChE (Homo sapiens, UniProt P06276); assay: Reversible inhibition of BChE, Ellman method, enzyme-inhibitor dissociation constants; format: biochemical; settings: for SI, selective index Ki(AChE)/Ki(BChE): times higher preference for BChE over AChE
Experimental: (§1) As a source of BChE, a purified human BChE, and as AChE, a recombinant human AChE was used, both enzymes kindly provided by Dr. F. Nachon (Département de Toxicologie, Armed Forces Biomedical Research Institute, France). The concentrated stocks of enzymes (BChE: 5.6 µM; AChE: 0.20 µM) were diluted in a phosphate sodium buffer 0.1 M (pH 7.4) containing 0.1% BSA before starting the experiments.
(§2) Enzyme activities were measured spectrophotometrically by the Ellman method at […] using 0.30 mM DTNB as thiol reagent, ATCh as substrate and water in 0.1 M phosphate buffer, pH 7.4. For the inhibition measurements, the reaction mixture contained tested compounds instead of water. […] Measurements were done at 25 °C on a Tecan Infinite M200Pro plate reader (Austria). A detailed description of measurement protocol was described previously.
(§3) The reversible inhibition of BChE and AChE by tested compounds was measured by determining the decrease of enzyme activity towards ATCh in their presence. The activities of the enzymes were measured at different substrate concentrations ([S]; 0.050–0.50 mM) in the absence (v0) and presence (vi) of the given tested compounds concentration ([I]; 0.050–200 µM, depending on the compound) selected to inhibit the enzymes for 20–80%. At least three concentrations of inhibitors for each substrate concentration were used in at least three experiments. The apparent dissociation inhibition constant (Ki,app) was calculated applying the Hunter-Downs equation and linear regression analysis (1):(1) Ki,app=vi/v0−vi⋅I=KI+KI/KS⋅S where y-intercept determines the enzyme-inhibitor dissociation constants (K(I)), while x-intercept determines the enzyme-substrate dissociation constant, K(S). The determination of kinetic constants was carried out using the GraphPadPrism 6.0 program (GraphPad Software, San Diego, CA, USA).

recombinant human AChE = recombinant human AChE (Homo sapiens, UniProt P22303); assay: Reversible inhibition of AChE, Ellman method, enzyme-inhibitor dissociation constants; format: biochemical; settings: ± standard error; ATCh substrate, 25 °C, pH 7.4
Experimental: as §1, §2, §3

[1] = ± standard error, ATCh substrate, 25 °C, pH 7.4

Chain of purified human BChE (P06276 29-602): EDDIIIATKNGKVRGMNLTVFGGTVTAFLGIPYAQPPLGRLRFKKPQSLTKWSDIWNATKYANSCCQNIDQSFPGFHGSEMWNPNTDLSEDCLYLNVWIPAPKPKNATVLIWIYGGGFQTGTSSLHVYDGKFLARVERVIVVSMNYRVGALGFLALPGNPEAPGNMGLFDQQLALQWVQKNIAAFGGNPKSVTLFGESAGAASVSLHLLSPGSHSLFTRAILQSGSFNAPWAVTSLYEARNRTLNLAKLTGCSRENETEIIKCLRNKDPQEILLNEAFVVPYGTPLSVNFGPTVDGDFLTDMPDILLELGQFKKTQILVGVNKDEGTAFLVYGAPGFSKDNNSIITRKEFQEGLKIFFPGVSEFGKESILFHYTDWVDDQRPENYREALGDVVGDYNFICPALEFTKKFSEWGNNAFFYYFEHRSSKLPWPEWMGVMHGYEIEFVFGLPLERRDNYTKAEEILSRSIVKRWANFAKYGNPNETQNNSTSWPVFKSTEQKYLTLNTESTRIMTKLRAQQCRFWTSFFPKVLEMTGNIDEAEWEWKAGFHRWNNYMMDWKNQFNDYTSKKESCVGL
Chain of recombinant human AChE (P22303 32-614): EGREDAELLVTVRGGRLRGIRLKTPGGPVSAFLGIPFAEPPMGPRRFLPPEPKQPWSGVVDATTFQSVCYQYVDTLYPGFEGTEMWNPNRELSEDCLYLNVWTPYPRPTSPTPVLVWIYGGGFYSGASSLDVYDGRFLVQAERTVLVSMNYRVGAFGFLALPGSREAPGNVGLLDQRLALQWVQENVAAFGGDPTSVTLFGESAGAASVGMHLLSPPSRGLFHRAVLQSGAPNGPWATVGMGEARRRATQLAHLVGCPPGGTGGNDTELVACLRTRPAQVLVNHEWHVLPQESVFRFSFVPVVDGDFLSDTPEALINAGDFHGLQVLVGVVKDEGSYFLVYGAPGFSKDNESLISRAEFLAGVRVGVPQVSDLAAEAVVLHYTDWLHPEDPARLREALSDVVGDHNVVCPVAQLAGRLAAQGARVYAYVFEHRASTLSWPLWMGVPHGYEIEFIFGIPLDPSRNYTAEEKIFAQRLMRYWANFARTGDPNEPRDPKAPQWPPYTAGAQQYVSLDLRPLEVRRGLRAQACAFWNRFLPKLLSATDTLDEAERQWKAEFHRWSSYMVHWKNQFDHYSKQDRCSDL

C=CC1C[N+]2(Cc3cccc(F)c3F)CCC1C[C@H]2[C@H](O)c1ccnc2ccccc12 (some centres unmarked) [CD 2,3F]
SI, selective index Ki(AChE)/Ki(BChE) (purified human BChE): 25 | Ki (purified human BChE; [1]): 0.75 ± 0.03 µM | Ki (recombinant human AChE): 19 ± 1 µM

C=CC1C[N+]2(Cc3ccc(F)cc3F)CCC1C[C@H]2[C@H](O)c1ccnc2ccccc12 (some centres unmarked) [CD 2,4F]
SI, selective index Ki(AChE)/Ki(BChE) (purified human BChE): 1.1 | Ki (purified human BChE; [1]): 6.1 ± 0.5 µM | Ki (recombinant human AChE): 6.4 ± 0.3 µM

C=CC1C[N+]2(Cc3c(F)cccc3F)CCC1C[C@H]2[C@H](O)c1ccnc2ccccc12 (some centres unmarked) [CD 2,6F]
SI, selective index Ki(AChE)/Ki(BChE) (purified human BChE): 0.77 | Ki (purified human BChE; [1]): 9.9 ± 0.4 µM | Ki (recombinant human AChE): 7.7 ± 0.5 µM

C=CC1C[N+]2(Cc3c(F)cccc3Cl)CCC1C[C@H]2[C@H](O)c1ccnc2ccccc12 (some centres unmarked) [CD 2Cl-6F, N-(2-chloro-6-fluorobenzyl)cinchonidinium bromide]
SI, selective index Ki(AChE)/Ki(BChE) (purified human BChE): 1.9 | Ki (purified human BChE; [1]): 5 ± 0.3 µM | Ki (recombinant human AChE): 9.9 ± 0.8 µM

C=CC1C[N+]2(Cc3ccc(Br)cc3F)CCC1C[C@H]2[C@H](O)c1ccnc2ccccc12 (some centres unmarked) [CD 2F-4Br, N-(2-fluoro-4-bromobenzyl)cinchonidinium bromide]
SI, selective index Ki(AChE)/Ki(BChE) (purified human BChE): 10 | Ki (purified human BChE; [1]): 0.68 ± 0.05 µM | Ki (recombinant human AChE): 7.2 ± 0.4 µM

C=CC1C[N+]2(Cc3c(F)cccc3C(F)(F)F)CCC1C[C@H]2[C@H](O)c1ccnc2ccccc12 (some centres unmarked) [CD 2F-6CF3, N-(2-fluoro-6-trifluoromethylbenzyl)cinchonidinium bromide]
SI, selective index Ki(AChE)/Ki(BChE) (purified human BChE): 6.1 | Ki (purified human BChE; [1]): 5.7 ± 0.6 µM | Ki (recombinant human AChE): 35 ± 4 µM

C=CC1C[N+]2(Cc3ccccc3F)CCC1C[C@H]2[C@H](O)c1ccnc2ccccc12 (some centres unmarked) [CD 2F]
SI, selective index Ki(AChE)/Ki(BChE) (purified human BChE): 40 | Ki (purified human BChE; [1]): 0.82 ± 0.03 µM | Ki (recombinant human AChE): 33 ± 1 µM

C=CC1C[N+]2(Cc3ccc(F)c(F)c3)CCC1C[C@H]2[C@H](O)c1ccnc2ccccc12 (some centres unmarked) [CD 3,4F]
SI, selective index Ki(AChE)/Ki(BChE) (purified human BChE): 10 | Ki (purified human BChE; [1]): 1.3 ± 0.1 µM | Ki (recombinant human AChE): 13 ± 1 µM

C=CC1C[N+]2(Cc3cc(F)cc(F)c3)CCC1C[C@H]2[C@H](O)c1ccnc2ccccc12 (some centres unmarked) [CD 3,5F]
Stereoselectivity Ki(CN/CD) BChE (purified human BChE; ratio > 1: higher affinity toward CD over CN pseudo-enantiomer): 78 | Ki (purified human BChE; stated in text as around): ~0.076 µM | SI, selective index Ki(AChE)/Ki(BChE) (purified human BChE): 123 | Ki (purified human BChE; [1]): 0.081 ± 0.01 µM | Ki (recombinant human AChE): 10 ± 1 µM

C=CC1C[N+]2(Cc3cccc(C(F)(F)F)c3)CCC1C[C@H]2[C@H](O)c1ccnc2ccccc12 (some centres unmarked) [CD 3CF3]
SI, selective index Ki(AChE)/Ki(BChE) (purified human BChE): 14 | Ki (purified human BChE; [1]): 2.4 ± 0.1 µM | Ki (recombinant human AChE): 34 ± 1 µM

C=CC1C[N+]2(Cc3cccc(F)c3)CCC1C[C@H]2[C@H](O)c1ccnc2ccccc12 (some centres unmarked) [CD 3F, N-(meta-fluorobenzyl)cinchonidinium bromide]
Ki (purified human BChE; stated in text as around): ~0.076 µM | SI, selective index Ki(AChE)/Ki(BChE) (purified human BChE): 533 | Ki (purified human BChE; [1]): 0.075 ± 0.005 µM | Ki (recombinant human AChE): 40 ± 2 µM

C=CC1C[N+]2(Cc3cccc(OC(F)(F)F)c3)CCC1C[C@H]2[C@H](O)c1ccnc2ccccc12 (some centres unmarked) [CD 3OCF3]
SI, selective index Ki(AChE)/Ki(BChE) (purified human BChE): 1.1 | Ki (purified human BChE; [1]): 7.4 ± 0.4 µM | Ki (recombinant human AChE): 8.2 ± 1.1 µM

C=CC1C[N+]2(Cc3ccc(C(F)(F)F)cc3)CCC1C[C@H]2[C@H](O)c1ccnc2ccccc12 (some centres unmarked) [CD 4CF3]
SI, selective index Ki(AChE)/Ki(BChE) (purified human BChE): 11 | Ki (purified human BChE; [1]): 2 ± 0.1 µM | Ki (recombinant human AChE): 21 ± 1 µM

C=CC1C[N+]2(Cc3ccc(F)cc3)CCC1C[C@H]2[C@H](O)c1ccnc2ccccc12 (some centres unmarked) [CD 4F]
SI, selective index Ki(AChE)/Ki(BChE) (purified human BChE): 46 | Ki (purified human BChE; [1]): 1.5 ± 0.1 µM | Ki (recombinant human AChE): 69 ± 3 µM

C=CC1C[N+]2(Cc3ccc(OC(F)(F)F)cc3)CCC1C[C@H]2[C@H](O)c1ccnc2ccccc12 (some centres unmarked) [CD 4OCF3]
SI, selective index Ki(AChE)/Ki(BChE) (purified human BChE): 0.96 | Ki (purified human BChE; [1]): 7.6 ± 0.5 µM | Ki (recombinant human AChE): 7.3 ± 0.5 µM

C=CC1C[N+]2(Cc3ccccc3)CCC1C[C@H]2[C@H](O)c1ccnc2ccccc12 (some centres unmarked) [CD Bzl]
SI, selective index Ki(AChE)/Ki(BChE) (purified human BChE): 200 | Ki (purified human BChE; [1]): 0.075 ± 0.007 µM | Ki (recombinant human AChE): 15 ± 2 µM

C=CC1C[N+]2(Cc3cccc(F)c3F)CCC1C[C@@H]2[C@@H](O)c1ccnc2ccccc12 (some centres unmarked) [CN 2,3F, N-(2,3-difluorobenzyl)cinchoninium bromide]
SI, selective index Ki(AChE)/Ki(BChE) (purified human BChE): 4.8 | Ki (purified human BChE; [1]): 9.6 ± 0.4 µM | Ki (recombinant human AChE): 46 ± 3 µM

C=CC1C[N+]2(Cc3ccc(F)cc3F)CCC1C[C@@H]2[C@@H](O)c1ccnc2ccccc12 (some centres unmarked) [CN 2,4F, N-(2,4-difluorobenzyl)cinchoninium bromide]
SI, selective index Ki(AChE)/Ki(BChE) (purified human BChE): 4.5 | Ki (purified human BChE; [1]): 6 ± 0.2 µM | Ki (recombinant human AChE): 27 ± 1 µM

C=CC1C[N+]2(Cc3c(F)cccc3F)CCC1C[C@@H]2[C@@H](O)c1ccnc2ccccc12 (some centres unmarked) [CN 2,6F, N-(2,6-difluorobenzyl)cinchoninium bromide]
SI, selective index Ki(AChE)/Ki(BChE) (purified human BChE): 5.8 | Ki (purified human BChE; [1]): 5.2 ± 0.2 µM | Ki (recombinant human AChE): 30 ± 2 µM

C=CC1C[N+]2(Cc3c(F)cccc3Cl)CCC1C[C@@H]2[C@@H](O)c1ccnc2ccccc12 (some centres unmarked) [CN 2Cl-6F, N-(2-chloro-6-fluorobenzyl)cinchoninium bromide]
SI, selective index Ki(AChE)/Ki(BChE) (purified human BChE): 14 | Ki (purified human BChE; [1]): 1.2 µM | Ki (recombinant human AChE): 17 ± 1 µM

C=CC1C[N+]2(Cc3ccc(Br)cc3F)CCC1C[C@@H]2[C@@H](O)c1ccnc2ccccc12 (some centres unmarked) [CN 2F-4Br, N-(2-fluoro-4-bromobenzyl)cinchoninium bromide]
SI, selective index Ki(AChE)/Ki(BChE) (purified human BChE): 2.9 | Ki (purified human BChE; [1]): 5.5 ± 0.3 µM | Ki (recombinant human AChE): 16 ± 1 µM

C=CC1C[N+]2(Cc3c(F)cccc3C(F)(F)F)CCC1C[C@@H]2[C@@H](O)c1ccnc2ccccc12 (some centres unmarked) [CN 2F-6CF3, N-(2-fluoro-6-trifluoromethylbenzyl)cinchoninium bromide]
SI, selective index Ki(AChE)/Ki(BChE) (purified human BChE): 7.9 | Ki (purified human BChE; [1]): 7.7 ± 0.4 µM | Ki (recombinant human AChE): 61 ± 2 µM

C=CC1C[N+]2(Cc3ccccc3F)CCC1C[C@@H]2[C@@H](O)c1ccnc2ccccc12 (some centres unmarked) [CN 2F]
SI, selective index Ki(AChE)/Ki(BChE) (purified human BChE): 33 | Ki (purified human BChE; [1]): 2.4 ± 0.1 µM | Ki (recombinant human AChE): 80 ± 2 µM

C=CC1C[N+]2(Cc3ccc(F)c(F)c3)CCC1C[C@@H]2[C@@H](O)c1ccnc2ccccc12 (some centres unmarked) [CN 3,4F]
SI, selective index Ki(AChE)/Ki(BChE) (purified human BChE): 2.3 | Ki (purified human BChE; [1]): 6.1 ± 0.2 µM | Ki (recombinant human AChE): 14 ± 0.2 µM

C=CC1C[N+]2(Cc3cc(F)cc(F)c3)CCC1C[C@@H]2[C@@H](O)c1ccnc2ccccc12 (some centres unmarked) [CN 3,5F]
SI, selective index Ki(AChE)/Ki(BChE) (purified human BChE): 5.4 | Ki (purified human BChE; [1]): 6.3 ± 0.2 µM | Ki (recombinant human AChE): 34 ± 3 µM

C=CC1C[N+]2(Cc3cccc(C(F)(F)F)c3)CCC1C[C@@H]2[C@@H](O)c1ccnc2ccccc12 (some centres unmarked) [CN 3CF3]
SI, selective index Ki(AChE)/Ki(BChE) (purified human BChE): 13 | Ki (purified human BChE; [1]): 4.4 ± 0.2 µM | Ki (recombinant human AChE): 59 ± 2 µM

C=CC1C[N+]2(Cc3cccc(F)c3)CCC1C[C@@H]2[C@@H](O)c1ccnc2ccccc12 (some centres unmarked) [CN 3F]
SI, selective index Ki(AChE)/Ki(BChE) (purified human BChE): 2.1 | Ki (purified human BChE; [1]): 6.1 ± 0.3 µM | Ki (recombinant human AChE): 13 ± 0.4 µM

C=CC1C[N+]2(Cc3cccc(OC(F)(F)F)c3)CCC1C[C@@H]2[C@@H](O)c1ccnc2ccccc12 (some centres unmarked) [CN 3OCF3, N-(3-trifluoromethoxybenzyl)cinchoninium bromide]
SI, selective index Ki(AChE)/Ki(BChE) (purified human BChE): 8.7 | Ki (purified human BChE; [1]): 4.7 ± 0.2 µM | Ki (recombinant human AChE): 41 ± 2 µM

C=CC1C[N+]2(Cc3ccc(C(F)(F)F)cc3)CCC1C[C@@H]2[C@@H](O)c1ccnc2ccccc12 (some centres unmarked) [CN 4CF3]
SI, selective index Ki(AChE)/Ki(BChE) (purified human BChE): 5.2 | Ki (purified human BChE; [1]): 6 ± 0.3 µM | Ki (recombinant human AChE): 31 ± 1 µM

C=CC1C[N+]2(Cc3ccc(F)cc3)CCC1C[C@@H]2[C@@H](O)c1ccnc2ccccc12 (some centres unmarked) [CN 4F, N-(para-fluorobenzyl)cinchoninium bromide]
SI, selective index Ki(AChE)/Ki(BChE) (purified human BChE): 1.5 | Ki (purified human BChE; [1]): 2.6 ± 0.1 µM | Ki (recombinant human AChE): 3.9 ± 0.2 µM

C=CC1C[N+]2(Cc3ccc(OC(F)(F)F)cc3)CCC1C[C@@H]2[C@@H](O)c1ccnc2ccccc12 (some centres unmarked) [CN 4OCF3]
SI, selective index Ki(AChE)/Ki(BChE) (purified human BChE): 2.4 | Ki (purified human BChE; [1]): 7.8 ± 0.3 µM | Ki (recombinant human AChE): 19 ± 2 µM

C=CC1C[N+]2(Cc3ccccc3)CCC1C[C@@H]2[C@@H](O)c1ccnc2ccccc12 (some centres unmarked) [CN Bzl]
SI, selective index Ki(AChE)/Ki(BChE) (purified human BChE): 42 | Ki (purified human BChE; [1]): 2.9 ± 0.3 µM | Ki (recombinant human AChE): 121 ± 12 µM

CC[C@H]1CN2CC[C@H]1C[C@@H]2[C@@H](O)c1ccnc2ccccc12 [DHCN, 10,11-dihydrocinchonine]
times higher affinity of BChE for DHCN over DHCD (purified human BChE; unsubstituted 10,11-dihydro compounds): 16 | Ki (purified human BChE; [1]): 1.2 ± 0.1 µM
